The values that follow come from patent US20200237863A1, “Combination Therapy of Fractionated Radiation and SAPC-DOPS for the Treatment of Tumors” (University of Cincinnati, priority 2017, published 2020).

The test system of assay [1] is cfPac-1 cells. In words: Flow cytometric analysis of Annexin V-FITC binding (surface PS) after irradiation. As to conditions: cfPac-1 cells irradiated at 10 Gy, 10 μM Z-VAD-fmk, assessed 24 hr later. Format: cell-based, human. The procedure: Unless otherwise stated, cells at 60-80% confluency were irradiated and then, after the appropriate time, were trypsinized, resuspended in complete medium, spun down, and washed once with PBS then resuspended in annexin V staining buffer. Cells (1×10^5) were incubated at room temperature in the dark for 15 minutes in a final volume of 100 μl containing 10 μl Annexin V-FITC (Invitrogen, Carlsbad, Calif.) and 2 μg/ml propidium iodide (PI, BD-Pharmingen, Eugene, Oreg.). Annexin V-FITC binding was measured by flow cytometry after adding 400 μl of annexin V binding buffer, using a BD Fortessa. Data was analyzed with BD FACS Diva. For quantifying the annexin V-FITC signal from living cells, PI positive dead cells were gated out and the annexin V-FITC signal was obtained from PI negative forward scattered, cells.
Cells were grown to 60-80% confluence in 60 mm dishes then exposed to (^137Cs) irradiation with a GammaCell 40 Exactor (Nordion international) at doses of 0, 2, 6, 10 or 16 Gy. The media was changed and the cells were processed for surface PS determination at the indicated times. Mice were irradiated at 10 Gy with an Xstrahl D3100 superficial systems (at 100 kV) with 2 cm cone and projected 1 cm deep.
Background: In flow cytometry, cells or beads pass a laser one at a time.

For assay [2], the system named is A2058, cfPac-1 and U87MG cell lines. In words: Cell viability (MTT) assay of serially irradiated cells treated with chemotherapeutic drugs. Format: cell-based, human. The note with it: 5 Gy weekly for multiple weeks, drug 7 days after last irradiation, MTT 72 hr later. On the procedure:
Non serially-irradiated cells are designated R0. Media was changed immediately after the irradiation and the cells were split every 3-4 days. Treatments were given 4-7 days following the last 5 Gy irradiation, when the surface PS is still elevated. A) Timeline of the treatment regime. B) Surface PS was determined by Annexin V-FITC staining on Day 4 following the last 5 Gy irradiation. Rx; x=15 for A2058 and 10 for cfPac-1 and U87MG. * p<0.05, ** p<0.01 compared to R0. Shown are the mean and S.D. C-E) Cells were serially irradiated with 5 Gy. (top panel, A2058 cells; middle panel, cfPac-1 cells; bottom panel, U87MG cells) C) 7 days later they were exposed to the indicated doses of radiation and cell viability was determined by MTT assay was performed 72 hr. later. Shown is the % of live cells with 100% as the normalized control for each cell line, * p<0.05. ** p<0.01, compared to R0. D) 7 days after the last 5 Gy irradiation, cells were treated with different doses of gemcitabine (GEM) temozolomide (TMZ) or cisplatin and cell viability was determined by MTT assay was performed 72 hr. later. * p<0.05, ** p<0.01, compared to R0 at the same dose of drug. E.) 7 days following the last 5 Gy irradiation, cells were treated with the indicated doses of SapC-DOPS (1 SapC:7 DOPS, Mol:Mol) and cell viability was determined by MTT assay was performed 72 hr. later. […]

Residues, ends and D or L forms follow the SMILES beside them. *: point of attachment. Cbz = O=C(OCc1ccccc1)*; CH2F = FC*

In the case of `COC(=O)C[C@H](NC(=O)[C@H](C)NC(=O)[C@@H](NC(=O)OCc1ccccc1)C(C)C)C(=O)CF` [Z-VAD fmk] (Cbz-Val-Ala-Asp(OMe)-CH2F), the “radiation-induced surface PS elevation (Annexin V binding)” value in assay [1] was “completely eliminated the radiation-induced surface PS elevation”.
`N.N.[Cl][Pt][Cl]` [cisplatin]: the “sensitivity of serially irradiated cells to chemotherapeutic drugs (MTT cell viability) compared to R0” value in assay [2] is “more resistant”.
On to `Nc1ccn([C@@H]2O[C@H](CO)[C@@H](O)C2(F)F)c(=O)n1` [gemcitabine], for which the “sensitivity of serially irradiated cells to chemotherapeutic drugs (MTT cell viability) compared to R0” value in assay [2] is reported as “more resistant”.
